Source: publication PMC7985170, “Marine Peptide-N6NH2 and Its Derivative-GUON6NH2 Have Potent Antimicrobial Activity Against Intracellular Edwardsiella tarda in vitro and in vivo” (Frontiers in Microbiology, 2021)
In brackets after ≈: the same amount, converted by molar mass. Where a SMILES comes first, the peptide text is derived from it. Bridges are numbered along the chain shown (N, C = ends). The star is where a group is joined. Orn(α-tetramethylguanidino) = CN(C)C(=N[C@@H](CCCN)C(=O)*)N(C)C

Experiments:
[1] = type: cell-based, Streptococcus enteritidis
Method: (§1) The antimicrobial activity of peptides was determined by the microbroth dilution method ([Zhang et al., 2014]). The bacterial strains were incubated in Mueller-Hinton (MH) medium at 28°C or 37°C overnight. Bacteria (1 × 10^5 CFU/mL) were added into 96-well plates, followed by the addition of serial dilutions of peptides (from 0.0625 to 128 μg/mL). The plates were incubated at 37°C for 18–24 h. The minimal inhibitory concentration (MIC) value was determined as the lowest peptide concentration at which no bacterial growth was observed.

S. pullorum CVCC1789 = type: cell-based, Salmonella pullorum
Method: as §1

S. aureus ATCC25923 = type: cell-based, Staphylococcus aureus
Method: as §1

S. aureus ATCC546 = type: cell-based, Staphylococcus aureus
Method: as §1

S. hyicus 15095 = type: cell-based, Staphylococcus hyicus
Method: as §1

[2] = system: Gram-negative and Gram-positive bacteria (ALL); experiment: Geometric mean of MICs and therapeutic index; type: cell-based; settings: for GM ALL: geometric mean (GM) of MICs, all strains; for TI ALL: therapeutic index (TI), cell selectivity
Method: as §1
(§2) The geometric mean (GM) of MICs of peptides against Gram-negative and Gram-positive bacteria was calculated, and the result was shown in Table 3. […] For Gram-negative bacteria, the TI value of GUON6NH2 (53.33) was very close to N6NH2 (58.18), while for positive bacteria, the TI value of GUON6NH2 (12.8) was slightly higher than that of N6NH2 (12.31), indicating their huge therapeutic potential. For Gram-positive bacteria, DN6NH2 had the highest TI value and the best therapeutic potential.

Gram-negative bacteria = experiment: Geometric mean of MICs and therapeutic index; type: cell-based; settings: for GM Gram-negative bacteria: geometric mean (GM) of MICs against Gram-negative bacteria; for TI Gram-negative bacteria: therapeutic index (TI), cell selectivity
Method: as §1, §2

Gram-positive bacteria = experiment: Geometric mean of MICs and therapeutic index; type: cell-based; settings: for GM Gram-positive bacteria: geometric mean (GM) of MICs against Gram-positive bacteria; for TI Gram-positive bacteria: therapeutic index (TI), cell selectivity
Method: as §1, §2

E. tarda [3] = experiment: Post-antibiotic effect (PAE); type: cell-based, Edwardsiella tarda; settings: for PAE: 2 h exposure, E. tarda, 28°C, n = 3
Method: E. tarda cells were incubated with peptides (1×, 2×, or 4× MIC) for 2 h, diluted, and cultured at 28°C and 200 rpm. An aliquot of samples (50 μL) were taken for CFU counts at different time intervals until bacterial cultures became turbid. Bacteria treated with the N6NH2, GUON6NH2 or vancomycin were used as the positive control; bacteria without treatment were used as the blank control. The PAE was calculated using the following formula: PAE = T–C, where T is the time for the CFU counts to increase by 10-fold above the count observed immediately after drug removal, and C is the corresponding time for the untreated control ([Oh et al., 2019]).

LPS = LPS binding, BODIPY-TR-cadaverine (BC) probe displacement; settings: 0.5 μM LPS, 5 μM BC, Tris buffer pH 7.4; peptides 0.049 to 50 μM
Method: The BODIPY’-TR-cadaverine (BC) probe was used to determine the ability of peptides to bind to LPS ([Wang et al., 2020]). 0.5 μM LPS was incubated with 5 μM BC in […] Tris buffer (pH 7.4) for 4 h at 37°C. Subsequently, the peptides were added into the mixture and the final concentrations of peptides ranged from 0.049 to 50 μM. Ampicillin was used as the negative control. Changes in fluorescence were measured by a fluorescence spectrophotometry at room temperature (excitation/emission, 580/620 nm).

[4] = system: inner membrane of E. tarda; experiment: Inner membrane penetration, PI staining by flow cytometry; type: cell-based, Edwardsiella tarda; settings: 1× MIC, 5–30 min at 37°C, 1 × 10^8 CFU/mL
Method: Mid-log phase E. tarda cells (1 × 10^8 CFU/mL) were incubated with or without 1× MIC peptides solutions at 37°C for 5, 15, and 30 min, respectively. After washing twice with PBS, bacterial cells were then incubated with 50 μg/mL propidium iodide (PI) for 15 min and analyzed using a FACS Calibur Flow Cytometer (BD, United States) ([Stearns-Kurosawa et al., 2011]).

RAW 264.7 macrophages = type: cell-based, mouse
Method: To quantify peptide uptake, RAW 264.7 macrophages were grown in 12-well plates (2.5 × 10^5 cells/mL, 750 μL/well) for 24 h. Then, the cells were treated with FITC-N6NH2 and FITC-GUON6NH2 (1, 5, 10, 25, and 50× MIC) for 18 h and washed with PBS. To avoid the influence of membrane-bound FITC-labeled peptides, the cells were incubated with 0.04% trypan blue in PBS for 15 min and the fluorescence intensity was analyzed using a FACS Calibur Flow Cytometer (BD, United States) ([Duchardt et al., 2009]).

E. tarda [5] = experiment: Mouse peritonitis model, bacterial counts in peritoneal fluid; type: in vivo; settings: 1 μmol/kg i.p., peritoneal fluid cells 24 h after treatment
Method: The mice were intraperitoneally infected with E. tarda (1 × 10^9 CFU/mL, 0.5 mL) and then injected with N6NH2 and GUON6NH2 (1 μmol/kg) or PBS (the blank control) in the same way at 1 h after infection. The mice were then killed at 24 h after treatment, and peritoneal fluids were obtained by washing with 5 mL of ice-cold PBS. The total number of E. tarda in the fluids was determined before any further procedures. For intracellular bacteria quantification, the other fraction was centrifuged for 5 min at 4°C (1,000 rpm). The cells were collected, treated with 1,000 μg/mL gentamicin for 30 min at 37°C to kill extracellular bacteria, and washed with ice-cold PBS twice to remove extracellular gentamicin. Subsequently, the cells were lysed and the bacteria were counted as described above for the in vitro experiment ([Kim et al., 2011]).

E. tarda [6] = experiment: Post-antibiotic effect (PAE); type: cell-based, Edwardsiella tarda; settings: 4× MIC

SMILES	MIC [1] [µg/mL]	MIC (S. pullorum CVCC1789) [µg/mL]	MIC (S. aureus ATCC25923) [µg/mL]	MIC (S. aureus ATCC546) [µg/mL]	MIC (S. hyicus 15095) [µg/mL]	GM ALL [2] [µg/mL]	TI ALL [2]	GM Gram-negative bacteria (Gram-negative bacteria) [µg/mL]	TI Gram-negative bacteria (Gram-negative bacteria)	GM Gram-positive bacteria (Gram-positive bacteria) [µg/mL]	TI Gram-positive bacteria (Gram-positive bacteria)	PAE (E. tarda [3]; 1× MIC) [h]	PAE (E. tarda [3]; 2× MIC) [h]	PAE, times longer than that of N6NH2 (E. tarda [3]; 4× MIC) [times]	PAE (E. tarda [3]; 4× MIC) [h]	ability to bind to LPS (BC probe displacement) (LPS)	penetration rate (PI-stained cells) [4]	percentages of florescent cells (RAW 264.7 macrophages)	reduction of intracellular bacteria (E. tarda [5]) [Log10 CFU]	PAE, times longer than that of norfloxacin (E. tarda [6]) [times]
CC(C)[C@@H]1NC(=O)CNC(=O)[C@H](CC(N)=O)NC(=O)[C@H](CCCNC(=N)N)NC(=O)[C@H](Cc2ccc(O)cc2)NC(=O)[C@H](C(C)C)NC(=O)[C@@H](NC(=O)[C@@H](NC(=O)[C@H](CC(N)=O)NC(=O)[C@H](Cc2c[nH]c3ccccc23)NC(=O)[C@H](C)NC(=O)[C@H](Cc2ccccc2)NC(=O)[C@H](CCCN)N=C(N(C)C)N(C)C)C(C)C)CSSC[C@@H](C(=O)N[C@@H](Cc2c[nH]cn2)C(=O)N[C@@H](CCCNC(=N)N)C(=O)N[C@@H](CCCNC(=N)N)C(=O)N[C@@H](C)C(=O)N[C@@H](CC(N)=O)C(N)=O)NC(=O)[C@H](C(C)C)NC(=O)[C@H](CCCNC(=N)N)NC1=O [GUON6NH2] ({Orn(α-tetramethylguanidino)}-FAWNVCVYRNGVRVCHRRAN-NH2; disulfide 6-15)	2 (≈ 0.76 µM)	8 (≈ 3.04 µM)	32 (≈ 12.2 µM)	16 (≈ 6.08 µM)	4 (≈ 1.52 µM)	9.87	25.94	4.8	53.33	20	12.8	1.54	1.51	2.65	3.97	V112N6NH2 > GUON6NH2 > N6NH2 > DN6NH2 > N6PNH2	0.78–2.84%	16.1–86.5%	1.97	1.27
CC(C)[C@@H]1NC(=O)CNC(=O)[C@H](CC(N)=O)NC(=O)[C@H](CCCNC(=N)N)NC(=O)[C@H](Cc2ccc(O)cc2)NC(=O)[C@H](C(C)C)NC(=O)[C@@H](NC(=O)[C@@H](NC(=O)[C@H](CC(N)=O)NC(=O)[C@H](Cc2c[nH]c3ccccc23)NC(=O)[C@H](C)NC(=O)[C@H](Cc2ccccc2)NC(=O)CN)C(C)C)CSSC[C@@H](C(=O)N[C@@H](Cc2cnc[nH]2)C(=O)N[C@@H](CCCNC(=N)N)C(=O)N[C@@H](CCCNC(=N)N)C(=O)N[C@@H](C)C(=O)N[C@@H](CC(N)=O)C(N)=O)NC(=O)[C@H](C(C)C)NC(=O)[C@H](CCCNC(=N)N)NC1=O [N6NH2]	2 (≈ 0.808 µM)	8 (≈ 3.23 µM)	32 (≈ 12.9 µM)	16 (≈ 6.46 µM)	8 (≈ 3.23 µM)	9.87	25.94	4.4	58.18	20.8	12.31	1.75	1.67	–	1.5	V112N6NH2 > GUON6NH2 > N6NH2 > DN6NH2 > N6PNH2	0.99–1.71%	27.6–79.8%	1.54	–
